Test results as given in US5693640A, “Pyridazino-indole derivatives” (Merck, Sharp & Dohme, Ltd., priority 1994, dated 1997).
pIC50: −log10 of the molar value.

Experiments:
[1] = system: NMDA; experiment: Cortical slice studies: responses to NMDA in rat cortical slice; conditions: calculated from righthand shift in the NMDA concentration-response curve, read-out: apparent equilibrium constant (Kb) in response to NMDA
Excerpt: (§1) The compounds useful in this invention potently and selectively block responses to NMDA and/or AMPA in a brain slice from rat cortex, and inhibit the binding of agonists and antagonists to the strychnine-insensitive site present on the NMDA receptor and/or AMPA binding to rat forebrain membranes.
The effects of compounds of use in the invention on responses to NMDA and AMPA can be assessed using the rat cortical slice as described by Wong et al., Proc. Natl. Acad. Sci. USA, 1986, 83, 7104. The apparent equilibrium constant (Kb) is calculated from the righthand shift in the NMDA or AMPA concentration-response curves produced by the compound under test.

[2] = target: T1, strychnine-insensitive site present on the NMDA receptor (Rattus norvegicus, UniProt P35439); experiment: Displacement of 3H-L-689,560 binding, rat forebrain membranes; conditions: read-out: concentration required to displace 50% of the specific binding (IC50)
T1 construct: strychnine-insensitive site present on the NMDA receptor of rat forebrain membranes; from tissue; host or cells: rat forebrain membranes
Excerpt: as §1
The ability of test compounds to displace ^3 H-L-689,560 (trans-2-carboxy-5,7-dichloro-4-phenylaminocarbonylamino-1,2,3,4-tetrahydroquinoline) binding to the strychnine-insensitive site present on the NMDA receptor of rat forebrain membranes can be determined by the method of Grimwood et al., Proceedings of the British Pharmacological Society, July 1991, Abstract C78.

- pIC50 [2]: > 4.30
Structure (SMILES): O=c1[nH]n(-c2ccccc2)c(=O)c2c1[nH]c1ccccc12 [Example 1, 2-Phenylpyridazino[4,5-b]indole-1,4-dione]
- Kb [1]: < 150 µM
